Where two headings read alike, the source gives them in different places.
Legend:
[1] = test system: P. falciparum male gametocytes; assay: P. falciparum Dual Gamete Formation Assay (PfDGFA), male readout (exflagellation); type: cell-based, Plasmodium falciparum NF54; settings: for Selectivity Ratio M: HepG2 Tox50 versus male IC50; for IC50: PfDGFA, 24 h incubation with gametocytes before induction, exflagellation readout, read-out: Male IC50; for HitlevelM: number of replicates with >50% inhibition in the male readout
How it was run: (§1)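 First, day-14 P. falciparum NF54 gametocytes receive compound for 24 h at 37°C in 1% O2/3% CO2. Next, ookinete medium with Cy3 anti-Pfs25 triggers gametogenesis at 28°C and male exflagellation is imaged. Finally, after 24 h in the dark, Cy3-labelled females are imaged.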

HepG2 cells = assay: HepG2 cytotoxicity counter-screen; settings: cytotoxic activity against HepG2 cells
[2] = test system: P. falciparum female gametocytes; assay: P. falciparum Dual Gamete Formation Assay (PfDGFA), female readout (Pfs25-positive female gametes); type: cell-based, Plasmodium falciparum NF54; settings: for Selectivity ratio F: HepG2 Tox50 versus female IC50; for IC50: PfDGFA, 24 h incubation with gametocytes before induction, female gamete readout, read-out: Female IC50; for HitlevelF: number of replicates with >50% inhibition in the female readout
How it was run: as §1

[3] = PfDGFA at 2µM, 24h preincubation with gametocytes, average of replicates
[4] = PfDGFA at 2µM, 24h preincubation with gametocytes, replicate R1
[5] = PfDGFA at 2µM, 24h preincubation with gametocytes, replicate R3
[6] = PfDGFA at 2µM, 24h preincubation with gametocytes, replicate R4
[7] = 2µM, 24h preincubation with gametocytes prior to induction of gametogenesis, average of replicates
[8] = 2µM, 24h preincubation with gametocytes prior to induction of gametogenesis, replicate R1
[9] = 2µM, 24h preincubation with gametocytes prior to induction of gametogenesis, replicate R3
[10] = 2µM, 24h preincubation with gametocytes prior to induction of gametogenesis, replicate R4
[11] = 2µM, 24h preincubation with gametocytes, average of replicates
[12] = 2µM, 24h preincubation with gametocytes, replicate R1
[13] = 2µM, 24h preincubation with gametocytes, replicate R3
[14] = 2µM, 24h preincubation with gametocytes, replicate R4

| Structure (SMILES) | Selectivity Ratio M [1] | Average inhibition male (%) [1, 3] [%] | % inhibition male (individual replicates) R1 [1, 4] [%] | % inhibition male (individual replicates) R3 [1, 5] [%] | % inhibition male (individual replicates) R4 [1, 6] [%] | IC50 [1] [µM] | HitlevelM ([1]; 2µM) | Tox50 (HepG2 cells) [µM] | Selectivity ratio F [2] | Average inhibition female (%) [2, 3] [%] | % inhibition female (individual replicates) R1 [2, 4] [%] | % inhibition female (individual replicates) R3 [2, 5] [%] | % inhibition female (individual replicates) R4 [2, 6] [%] | IC50 [2] [µM] | HitlevelF ([2]; 2µM) | other results |
| --- | --- | --- | --- | --- | --- | --- | --- | --- | --- | --- | --- | --- | --- | --- | --- | --- |
| COc1ccc(N2CCN(CCCCNCc3ccc(NC(=O)c4cc(Cl)cc(Cl)c4)cc3)CC2)c(OC)c1 [TCMDC-138226] | 3.29 | 83.1 | 85.0 | 71.2 | 96.9 | 1.64 | 4 | 5.4 | 1.04 | 28.5 | 20.8 | 39.5 | 12.9 | 5.22 | 0 | – |
| CN(C)CCNCc1ccc(-c2ccc3c(Nc4ccc(Cl)cc4F)ccnc3c2)o1 [TCMDC-138391] | 7.38 | – | – | – | – | 1.75 | – | 12.91 | 2.31 | – | – | – | – | 5.59 | – | Average inhibition male (%) [1, 7]: 55.2%; % inhibition male (individual replicates) R1 [1, 8]: 62.6%; % inhibition male (individual replicates) R3 [1, 9]: 53.9%; % inhibition male (individual replicates) R4 [1, 10]: 79.6%; HitlevelM ([1]; 2µM, 24h preincubation): 3; Average inhibition female (%) [2, 7]: 37.2%; % inhibition female (individual replicates) R1 [2, 8]: 39.6%; % inhibition female (individual replicates) R3 [2, 9]: 32.6%; % inhibition female (individual replicates) R4 [2, 10]: 31.7%; HitlevelF ([2]; 2µM, 24h preincubation): 0 |
| CN(C)CCN(C)Cc1ccc(-c2ccc3c(Nc4ccc(Oc5ccccc5)cc4)ccnc3c2)o1 [TCMDC-138400] | 3.65 | – | – | – | – | 0.94 | – | 3.45 | 0.72 | – | – | – | – | 4.78 | – | Average inhibition male (%) [1, 11]: 97.6%; % inhibition male (individual replicates) R1 [1, 12]: 97.3%; % inhibition male (individual replicates) R3 [1, 13]: 97.8%; % inhibition male (individual replicates) R4 [1, 14]: 99.6%; Average inhibition female (%) [2, 11]: 65.3%; % inhibition female (individual replicates) R1 [2, 12]: 57.3%; % inhibition female (individual replicates) R3 [2, 13]: 63.8%; % inhibition female (individual replicates) R4 [2, 14]: 69.5% |
| CC(C)S(=O)(=O)N1CCN(Cc2ccc3c(c2)nc(NC(=O)c2ccsc2)n3C[C@H](O)c2ccccc2)CC1 [TCMDC-138569] | 20.83 | – | – | – | – | – | 4 | 8.48 | 0.85 | – | – | – | – | – | 0 | inhibition at 2 µM ([1]; Plasmodium falciparum, PfDGFA at 2µM, 24h preincubation with gametocytes, average of replicates, read-out: Average inhibition male (%)): 67.3%; inhibition at 2 µM ([1]; Plasmodium falciparum, PfDGFA at 2µM, 24h preincubation with gametocytes, replicate R1, read-out: % inhibition male (individual replicates) R1): 77.8%; inhibition at 2 µM ([1]; Plasmodium falciparum, PfDGFA at 2µM, 24h preincubation with gametocytes, replicate R2, read-out: % inhibition male (individual replicates) R2): 73.7%; inhibition at 2 µM ([1]; Plasmodium falciparum, PfDGFA at 2µM, 24h preincubation with gametocytes, replicate R3, read-out: % inhibition male (individual replicates) R3): 62.3%; inhibition at 2 µM ([1]; Plasmodium falciparum, PfDGFA at 2µM, 24h preincubation with gametocytes, replicate R4, read-out: % inhibition male (individual replicates) R4): 55.6%; IC50 ([1]; Plasmodium falciparum): 0.41 µM; inhibition at 2 µM ([2]; Plasmodium falciparum, PfDGFA at 2µM, 24h preincubation with gametocytes, average of replicates, read-out: Average inhibition female (%)): 9.7%; inhibition at 2 µM ([2]; Plasmodium falciparum, PfDGFA at 2µM, 24h preincubation with gametocytes, replicate R1, read-out: % inhibition female (individual replicates) R1): 10.7%; inhibition at 2 µM ([2]; Plasmodium falciparum, PfDGFA at 2µM, 24h preincubation with gametocytes, replicate R2, read-out: % inhibition female (individual replicates) R2): -0.7%; inhibition at 2 µM ([2]; Plasmodium falciparum, PfDGFA at 2µM, 24h preincubation with gametocytes, replicate R3, read-out: % inhibition female (individual replicates) R3): -17.5%; inhibition at 2 µM ([2]; Plasmodium falciparum, PfDGFA at 2µM, 24h preincubation with gametocytes, replicate R4, read-out: % inhibition female (individual replicates) R4): 46.4%; IC50 ([2]; Plasmodium falciparum): > 10 µM |
| CN1CCN(CCCNCc2ccc(Nc3nccc(Nc4ccc(Oc5ccccc5)cc4)n3)cc2)CC1 [TCMDC-138621] | 4.45 | 76.4 | 65.3 | 52.8 | 96.9 | 1.77 | 4 | 7.88 | 1.14 | 16.4 | 12.8 | 8.2 | 31.4 | 6.88 | 0 | – |

From PMC10584170, “Machine learning-based phenotypic imaging to characterise the targetable biology of Plasmodium falciparum male gametocytes for the development of transmission-blocking antimalarials” (PLOS Pathogens, 2023)
